Assay results: ChEMBL document CHEMBL5046315, “CRCM5484: A BET-BDII Selective Compound with Differential Anti-leukemic Drug Modulation” (J Med Chem, 2022)
Activity calls are given as the source filed them. The calls are words filed in the database; no cut-off is given here.

Assays:
[1] = biological target: T1, Bromodomain-containing protein 3 (Homo sapiens, UniProt Q15059); assay: Inhibition of BRD3-BD1 domain (unknown origin) incubated for 6 hrs by HTRF method
Homo sapiens [2] = organism: Homo sapiens; assay: Selectivity ratio of IC50 for BRD3-BD1 (unknown origin) to IC50 for BRD3-BD2 (unknown origin)
[3] = biological target: T1, Bromodomain-containing protein 3; assay: Inhibition of BRD3-BD2 (unknown origin) incubated for 6 hrs by HTRF method
[4] = biological target: T1, Bromodomain-containing protein 3; assay: Binding affinity to human partial length BRD3-BD2 (G306 to P416) expressed in bacterial system assessed as dissociation constant by BROMOscan method
Homo sapiens [5] = organism: Homo sapiens; assay: Selectivity ratio of IC50 for BRD4-BD1 (unknown origin) to IC50 for BRD4-BD2 (unknown origin)
[6] = biological target: T2, Bromodomain-containing protein 2 (Homo sapiens, UniProt P25440); assay: Inhibition of BRD2-BD2 (unknown origin) incubated for 6 hrs by HTRF method
[7] = biological target: T2, Bromodomain-containing protein 2; assay: Binding affinity to human partial length BRD2-BD2 (E348 to D455) expressed in bacterial system assessed as dissociation constant by BROMOscan method
[8] = biological target: T3, Bromodomain-containing protein 4 (Homo sapiens, UniProt O60885); assay: Binding affinity to human partial length BRD4-BD2 (K333 to E460 residues) expressed in bacterial system assessed as dissociation constant by BROMOscan method
[9] = biological target: T3, Bromodomain-containing protein 4; assay: Inhibition of BRD4-BD2 (unknown origin) incubated for 6 hrs by HTRF method
[10] = biological target: T3, Bromodomain-containing protein 4; assay: Inhibition of BRD4-BD1 (unknown origin) (N44 to E168 residues) expressed in bacterial expression system assessed as dissociation constant by BROMOscan method
[11] = biological target: T3, Bromodomain-containing protein 4; assay: Inhibition of BRD4-BD2 (unknown origin) (K333 to E460 residues) expressed in bacterial system assessed as dissociation constant by BROMOscan method
MOLM-14 [12] = assay: cells; conditions: Homo sapiens, MOLM-14, 72 h
Description: Cytotoxicity against human MOLM-14 cells assessed as reduction in cell viability incubated for 72 hrs

[13] = biological target: T1, Bromodomain-containing protein 3; assay: Inhibition of BRD3-BD1 (unknown origin) assessed as dissociation constant by TR-FRET method
K562 [14] = assay: Cytotoxicity against human K562 cells assessed as reduction in cell viability incubated for 72 hrs; type: functional, cell-based; conditions: K562, 72 h
NB-4 = assay: Cytotoxicity against human NB-4 cells assessed as reduction in cell viability incubated for 72 hrs; type: functional, cell-based; conditions: NB-4, 72 h
MOLM-14 [15] = assay: Downregulation of Myc expression in human MOLM-14 cells incubated for 2 hrs by RT-PCR analysis; type: functional, cell-based; conditions: dose 5.0 µM
CCRF-CEM = assay: Cytotoxicity against human CCRF-CEM cells assessed as reduction in cell viability incubated for 72 hrs; type: functional, cell-based
K562 [16] = assay: Inhibition of IFNgamma induced MHC-1 expression in human K562 cells treated for 48 hrs by flow cytometric analysis; type: functional, cell-based; conditions: dose 0.2-20 µM
[17] = biological target: T3, Bromodomain-containing protein 4; assay: Inhibition of BRD4-BD1 (unknown origin) incubated for 6 hrs by HTRF method

T1 sequence (Q15059 whole entry, the tested form may be a part): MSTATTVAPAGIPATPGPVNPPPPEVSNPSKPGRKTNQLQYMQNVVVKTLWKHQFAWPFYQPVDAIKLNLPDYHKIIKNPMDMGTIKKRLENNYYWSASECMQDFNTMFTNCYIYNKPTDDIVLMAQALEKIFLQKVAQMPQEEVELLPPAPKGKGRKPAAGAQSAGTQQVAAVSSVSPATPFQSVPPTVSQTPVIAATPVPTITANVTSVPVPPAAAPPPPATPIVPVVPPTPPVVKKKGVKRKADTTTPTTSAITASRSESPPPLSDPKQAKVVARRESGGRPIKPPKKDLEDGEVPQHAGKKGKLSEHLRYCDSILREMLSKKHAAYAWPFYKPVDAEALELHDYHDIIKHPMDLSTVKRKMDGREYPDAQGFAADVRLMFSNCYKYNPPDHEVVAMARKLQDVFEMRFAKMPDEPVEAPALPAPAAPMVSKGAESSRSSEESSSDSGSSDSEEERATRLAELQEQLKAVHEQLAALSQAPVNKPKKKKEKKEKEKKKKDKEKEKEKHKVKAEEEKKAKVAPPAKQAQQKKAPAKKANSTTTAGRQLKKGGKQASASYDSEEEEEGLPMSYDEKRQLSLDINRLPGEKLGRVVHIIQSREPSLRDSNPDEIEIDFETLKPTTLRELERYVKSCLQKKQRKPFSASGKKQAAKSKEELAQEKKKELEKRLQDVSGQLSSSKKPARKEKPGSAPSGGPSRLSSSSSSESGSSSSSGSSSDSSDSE
T2 sequence (P25440 whole entry): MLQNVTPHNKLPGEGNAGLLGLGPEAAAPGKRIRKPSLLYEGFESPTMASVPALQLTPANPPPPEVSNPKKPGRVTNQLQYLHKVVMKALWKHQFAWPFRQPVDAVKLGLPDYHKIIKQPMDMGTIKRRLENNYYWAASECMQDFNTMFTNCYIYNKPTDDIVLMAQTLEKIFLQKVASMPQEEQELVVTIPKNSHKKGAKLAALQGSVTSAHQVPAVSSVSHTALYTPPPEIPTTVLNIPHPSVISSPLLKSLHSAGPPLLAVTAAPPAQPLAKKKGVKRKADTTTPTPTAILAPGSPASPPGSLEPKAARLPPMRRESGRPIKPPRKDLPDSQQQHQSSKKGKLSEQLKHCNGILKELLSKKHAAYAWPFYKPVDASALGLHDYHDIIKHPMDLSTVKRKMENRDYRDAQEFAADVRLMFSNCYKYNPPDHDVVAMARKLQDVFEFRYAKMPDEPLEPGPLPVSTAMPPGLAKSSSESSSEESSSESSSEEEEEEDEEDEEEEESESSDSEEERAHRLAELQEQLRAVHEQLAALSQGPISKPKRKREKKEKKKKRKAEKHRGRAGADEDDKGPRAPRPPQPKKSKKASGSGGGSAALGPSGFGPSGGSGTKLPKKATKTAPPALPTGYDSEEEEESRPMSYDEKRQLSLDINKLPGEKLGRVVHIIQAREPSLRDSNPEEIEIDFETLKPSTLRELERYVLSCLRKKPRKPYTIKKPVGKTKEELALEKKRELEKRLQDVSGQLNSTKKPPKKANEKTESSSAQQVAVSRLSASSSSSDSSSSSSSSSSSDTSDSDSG

Compound	IC50 [1]	Ratio IC50 (Homo sapiens [2])	IC50 [3]	further results
CC(=O)N1CCc2c(sc3nc(SCC(=O)Nc4ccc(C)c(F)c4)n(Cc4ccco4)c(=O)c23)C1	4200 nM	31	210 nM	–
COc1ccccc1NC(=O)CSc1nc2sc3c(c2c(=O)n1Cc1ccco1)CCN(C(C)=O)C3	–	31	72 nM	–
CC(=O)c1cccc(NC(=O)CSc2nc3sc4c(c3c(=O)n2Cc2ccco2)CCN(C(C)=O)C4)c1	4100 nM	9	170 nM	–
CC(=O)N1CCc2c(sc3nc(SCC(=O)Nc4cc(F)ccc4F)n(Cc4ccco4)c(=O)c23)C1	4500 nM	24	170 nM	–
CC(=O)N1CCc2c(sc3nc(SCC(=O)Nc4cc(Cl)ccc4C)n(Cc4ccco4)c(=O)c23)C1	8500 nM	–	85 nM	IC50 [4]: 325 nM; Ratio IC50 (Homo sapiens [5]): 4.4; IC50 [6]: 120 nM; IC50 [7]: 2600 nM; IC50 [8]: 775 nM; IC50 [9]: 900 nM
CC(=O)N1CCc2c(sc3nc(SCC(=O)Nc4ccc(F)c(F)c4)n(Cc4ccco4)c(=O)c23)C1	4900 nM	8	470 nM	–
CC(=O)N1CCc2c(sc3nc(SCC(=O)Nc4ccc(F)cc4)n(Cc4ccco4)c(=O)c23)C1	3600 nM	7	420 nM	–
COc1cc(C(=O)C(=Cc2ccncc2)c2nc3ccccc3o2)cc(OC)c1OC	–	–	–	Ratio IC50 (Homo sapiens [5]): 5.4; IC50 [9]: 800 nM
CC(=O)N1CCc2c(sc3nc(SCC(=O)Nc4ccccc4C)n(Cc4ccco4)c(=O)c23)C1	3000 nM	15	220 nM	–
CC(=O)c1ccc(NC(=O)CSc2nc3sc4c(c3c(=O)n2Cc2ccco2)CCN(C(C)=O)C4)cc1	1500 nM	4	320 nM	–
CC(=O)N1CCc2c(sc3nc(SCC(=O)Nc4ccccc4Cl)n(Cc4ccco4)c(=O)c23)C1	2800 nM	23	100 nM	–
CCC(=O)N1CCc2c(sc3[nH]c(=O)n(C4CCCCC4)c(=O)c23)C1	> 25000 nM	–	–	–
CC(=O)N1CCc2c(sc3nc(SCC(=O)Nc4ccc(F)cc4F)n(Cc4ccco4)c(=O)c23)C1	3500 nM	13	380 nM	–
Cc1cc(F)ccc1NS(=O)(=O)c1cc(-c2c(C)noc2C)ccc1C	–	–	–	Ratio IC50 (Homo sapiens [5]): 4.9; IC50 [9]: 1500 nM
CC(=O)N1c2ccc(C3=CCNCC3)cc2N(Cc2ccccc2CO)C[C@@H]1C1CC1	–	–	–	Kd [10]: 3000 nM; Kd [11]: 63 nM
Cc1ccc(-c2c(C)noc2C)cc1S(=O)(=O)Nc1cccc(C)c1C	–	–	–	Ratio IC50 (Homo sapiens [5]): 12; IC50 [9]: 900 nM
CC(=O)N1CCc2c(sc3nc(SCC(=O)Nc4cccc(C)c4)n(Cc4ccco4)c(=O)c23)C1	–	12	440 nM	–
CC(=O)N1CCc2c(sc3nc(SCC(=O)Nc4ccccc4F)n(Cc4ccco4)c(=O)c23)C1	7500 nM	20	210 nM	–
COc1cccc(NC(=O)CSc2nc3sc4c(c3c(=O)n2Cc2ccco2)CCN(C(C)=O)C4)c1	14000 nM	9	300 nM	–

Compound	IC50 [1]	Ratio IC50 (Homo sapiens [2])	IC50 [3]	further results
CSc1cccc(NC(=O)CSc2nc3sc4c(c3c(=O)n2Cc2ccco2)CCN(C(C)=O)C4)c1	6500 nM	11	410 nM	–
CC(=O)N1CCc2c(sc3nc(SCC(=O)Nc4ccc(F)c(Cl)c4)n(Cc4ccco4)c(=O)c23)C1	3800 nM	7	740 nM	–
CC(=O)N1CCc2c(sc3nc(SCC(=O)Nc4cc(Cl)ccc4C)n(-c4ccccc4)c(=O)c23)C1	> 25000 nM	> 4	6300 nM	–
CC(=O)N1CCc2c(sc3nc(SCC(=O)Nc4ccc(C)cc4)n(Cc4ccco4)c(=O)c23)C1	3200 nM	5	630 nM	–
CCOc1ccccc1NC(=O)CSc1nc2sc3c(c2c(=O)n1Cc1ccco1)CCN(C(C)=O)C3	4400 nM	23	150 nM	–
CC(=O)Nc1c(F)cc(C(=O)N[C@H]2CC[C@H](O)CC2)cc1O[C@@H](C)c1ccccc1 [GSK046]	–	–	–	EC50 (MOLM-14 [12]): 14000 nM; IC50 [13]: 3600 nM; EC50 (K562 [14]): > 5000 nM; EC50 (NB-4): > 5000 nM; Activity (MOLM-14 [15]): Dose-Dependent Effect; EC50 (CCRF-CEM): > 5000 nM
COc1ccc(NC(=O)CSc2nc3sc4c(c3c(=O)n2Cc2ccco2)CCN(C(C)=O)C4)cc1	2200 nM	6	570 nM	–
O=C1c2ccc(Oc3cccc(Oc4ccc5c(c4)C(=O)N(c4ccc(O)cc4)C5=O)c3)cc2C(=O)N1c1ccc(O)cc1	–	–	–	Ratio IC50 (Homo sapiens [5]): 0.4; IC50 [9]: 3200 nM
CC(=O)N1CCc2c(sc3nc(SCC(=O)Nc4cccc(Cl)c4)n(Cc4ccco4)c(=O)c23)C1	3100 nM	9	490 nM	–
Cc1sc2c(c1C)C(c1ccc(Cl)cc1)=N[C@@H](CC(=O)Nc1ccc(O)cc1)c1nnc(C)n1-2 [BIRABRESIB]	–	–	–	EC50 (MOLM-14 [12]): 80 nM; Activity (K562 [16]): Active; Activity (MOLM-14 [15]): Dose-Dependent Effect
CC(=O)N1CCc2c(sc3nc(SCC(=O)Nc4ccccc4)n(-c4ccccc4)c(=O)c23)C1	> 25000 nM	> 5	5500 nM	–
Cc1nn(CCO)c(C)c1-c1c(C)c(-c2ccc(O)cc2)nc(N)c1C#N	–	–	–	IC50 [17]: 8200 nM; Ratio IC50 (Homo sapiens [5]): 9; IC50 [9]: 900 nM
CCc1cccc(C)c1NS(=O)(=O)c1cc(-c2c(C)noc2C)ccc1C	–	–	–	Ratio IC50 (Homo sapiens [5]): 7.8; IC50 [9]: 1100 nM
CCOc1ccc(NC(=O)CSc2nc3sc4c(c3c(=O)n2Cc2ccco2)CCN(C(C)=O)C4)cc1	1300 nM	4	880 nM	–
COc1cc(OC)c2c(=O)[nH]c(-c3cc(C)c(OCCO)c(C)c3)nc2c1 [APABETALONE]	–	–	–	EC50 (MOLM-14 [12]): 6700 nM; EC50 (K562 [14]): > 5000 nM; EC50 (NB-4): > 5000 nM; Activity (MOLM-14 [15]): Dose-Dependent Effect; EC50 (CCRF-CEM): > 5000 nM
CC(=O)N1CCc2c(sc3nc(SCC(=O)Nc4cc(Cl)ccc4C)n(-c4ccc(C)o4)c(=O)c23)C1	7800 nM	19	410 nM	–
CC(=O)N1CCc2c(sc3nc(SCC(=O)Nc4ccccc4)n(Cc4ccco4)c(=O)c23)C1	14000 nM	100	140 nM	–
CC(=O)N1CCc2c(sc3nc(SCC(=O)Nc4ccc(Cl)cc4)n(Cc4ccco4)c(=O)c23)C1	4500 nM	8	530 nM	–
